Results from US11117892B2, “Pyrrolo-pyridine derivative compound, method for preparing same, and pharmaceutical composition containing same as active ingredient for prevention or treatment of protein kinase-related diseases” (DAEGU-GYEONGBUK MEDICAL INNOVATION FOUNDATION, priority 2017, dated 2021).

Experiments:
Experiment in all cases: scanMAX Kinase assay panel
Assay type in all cases: binding
Settings in all cases: read-out: % control
[1] = target: EPHA3 (Homo sapiens (Human), UniProt P29320)
In short: (§1)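 Each compound is run against the kinase on the scanMAX selectivity panel. Its signal is then expressed relative to a DMSO negative control (100%) and a positive control compound (0%).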

[2] = target: KIT(V559D, T670I) (Homo sapiens (Human), UniProt P10721, T670I/V559D)
In short: as §1

[3] = target: LCK (Homo sapiens (Human), UniProt P06239)
In short: as §1

[4] = target: MYO3A (Homo sapiens (Human), UniProt Q8NEV4)
In short: as §1

[5] = target: EPHA1 (Homo sapiens (Human), UniProt P21709)
In short: as §1

[6] = target: PIK3CA(I800L) (Homo sapiens (Human), UniProt P42336, I800L)
In short: as §1

[7] = target: DDR2 (Homo sapiens (Human), UniProt Q16832)
In short: as §1

[8] = target: TSSK1B (Homo sapiens (Human), UniProt Q9BXA7)
In short: as §1

[9] = target: DCAMKL1 (Homo sapiens (Human), UniProt O15075)
In short: as §1

[10] = target: RSK3(Kin.Dom.1-N-terminal) (Homo sapiens (Human), UniProt Q15349)
In short: as §1

[11] = target: EGFR(L858R) (Homo sapiens (Human), UniProt P00533, L858R)
In short: as §1

[12] = target: CSNK1G3 (Homo sapiens (Human), UniProt Q9Y6M4)
In short: as §1

[13] = target: MET(Y1235D) (Homo sapiens (Human), UniProt P08581, Y1235D)
In short: as §1

[14] = target: BMPR1B (Homo sapiens (Human), UniProt O00238)
In short: as §1

[15] = target: DAPK2 (Homo sapiens (Human), UniProt Q9UIK4)
In short: as §1

[16] = target: BMPR1A (Homo sapiens (Human), UniProt P36894)
In short: as §1

[17] = target: MST3 (Homo sapiens (Human), UniProt Q9Y6E0)
In short: as §1

[18] = target: NIK (Homo sapiens (Human), UniProt Q99558)
In short: as §1

[19] = target: PKN1 (Homo sapiens (Human), UniProt Q16512)
In short: as §1

[20] = target: IRAK4 (Homo sapiens (Human), UniProt Q9NWZ3)
In short: as §1

[21] = target: PIK3C2G (Homo sapiens (Human), UniProt O75747)
In short: as §1

[22] = target: MYLK4 (Homo sapiens (Human), UniProt Q86YV6)
In short: as §1

[23] = target: TYK2(JH1domain-catalytic) (Homo sapiens (Human), UniProt P29597)
In short: as §1

[24] = target: ACVR2A (Homo sapiens (Human), UniProt P27037)
In short: as §1

[25] = target: CAMK2D (Homo sapiens (Human), UniProt Q13557)
In short: as §1

[26] = target: DLK (Homo sapiens (Human), UniProt Q12852)
In short: as §1

[27] = target: ROS1 (Homo sapiens (Human), UniProt P08922)
In short: as §1

[28] = target: p38-alpha (Homo sapiens (Human), UniProt Q16539)
In short: as §1

[29] = target: FLT3(D835Y) (Homo sapiens (Human), UniProt P36888, D835Y)
In short: as §1

[30] = target: BRK (Homo sapiens (Human), UniProt Q13882)
In short: as §1

[31] = target: TEC (Homo sapiens (Human), UniProt P42680)
In short: as §1

[32] = target: FGFR3(G697C) (Homo sapiens (Human), UniProt P22607, G697C)
In short: as §1

[33] = target: MAK (Homo sapiens (Human), UniProt P20794)
In short: as §1

[34] = target: KIT (Homo sapiens (Human), UniProt P10721)
In short: as §1

[35] = target: DCAMKL3 (Homo sapiens (Human), UniProt Q9C098)
In short: as §1

[36] = target: SGK (Homo sapiens (Human), UniProt O00141)
In short: as §1

[37] = target: TIE2 (Homo sapiens (Human), UniProt Q02763)
In short: as §1

[38] = target: LOK (Homo sapiens (Human), UniProt O94804)
In short: as §1

[39] = target: SIK (Homo sapiens (Human), UniProt P57059)
In short: as §1

Chain of p38-alpha (Q16539 whole entry): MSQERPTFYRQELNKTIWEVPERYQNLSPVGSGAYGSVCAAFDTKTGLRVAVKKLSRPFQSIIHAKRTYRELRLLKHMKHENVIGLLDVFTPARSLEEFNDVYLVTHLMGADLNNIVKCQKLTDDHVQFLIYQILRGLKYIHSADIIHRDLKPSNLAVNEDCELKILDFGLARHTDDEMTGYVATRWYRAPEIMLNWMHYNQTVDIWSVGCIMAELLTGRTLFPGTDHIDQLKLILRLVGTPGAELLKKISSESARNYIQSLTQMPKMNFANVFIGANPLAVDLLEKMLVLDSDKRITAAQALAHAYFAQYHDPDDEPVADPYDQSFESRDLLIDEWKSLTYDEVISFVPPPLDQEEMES
Chain of PIK3C2G (O75747 whole entry): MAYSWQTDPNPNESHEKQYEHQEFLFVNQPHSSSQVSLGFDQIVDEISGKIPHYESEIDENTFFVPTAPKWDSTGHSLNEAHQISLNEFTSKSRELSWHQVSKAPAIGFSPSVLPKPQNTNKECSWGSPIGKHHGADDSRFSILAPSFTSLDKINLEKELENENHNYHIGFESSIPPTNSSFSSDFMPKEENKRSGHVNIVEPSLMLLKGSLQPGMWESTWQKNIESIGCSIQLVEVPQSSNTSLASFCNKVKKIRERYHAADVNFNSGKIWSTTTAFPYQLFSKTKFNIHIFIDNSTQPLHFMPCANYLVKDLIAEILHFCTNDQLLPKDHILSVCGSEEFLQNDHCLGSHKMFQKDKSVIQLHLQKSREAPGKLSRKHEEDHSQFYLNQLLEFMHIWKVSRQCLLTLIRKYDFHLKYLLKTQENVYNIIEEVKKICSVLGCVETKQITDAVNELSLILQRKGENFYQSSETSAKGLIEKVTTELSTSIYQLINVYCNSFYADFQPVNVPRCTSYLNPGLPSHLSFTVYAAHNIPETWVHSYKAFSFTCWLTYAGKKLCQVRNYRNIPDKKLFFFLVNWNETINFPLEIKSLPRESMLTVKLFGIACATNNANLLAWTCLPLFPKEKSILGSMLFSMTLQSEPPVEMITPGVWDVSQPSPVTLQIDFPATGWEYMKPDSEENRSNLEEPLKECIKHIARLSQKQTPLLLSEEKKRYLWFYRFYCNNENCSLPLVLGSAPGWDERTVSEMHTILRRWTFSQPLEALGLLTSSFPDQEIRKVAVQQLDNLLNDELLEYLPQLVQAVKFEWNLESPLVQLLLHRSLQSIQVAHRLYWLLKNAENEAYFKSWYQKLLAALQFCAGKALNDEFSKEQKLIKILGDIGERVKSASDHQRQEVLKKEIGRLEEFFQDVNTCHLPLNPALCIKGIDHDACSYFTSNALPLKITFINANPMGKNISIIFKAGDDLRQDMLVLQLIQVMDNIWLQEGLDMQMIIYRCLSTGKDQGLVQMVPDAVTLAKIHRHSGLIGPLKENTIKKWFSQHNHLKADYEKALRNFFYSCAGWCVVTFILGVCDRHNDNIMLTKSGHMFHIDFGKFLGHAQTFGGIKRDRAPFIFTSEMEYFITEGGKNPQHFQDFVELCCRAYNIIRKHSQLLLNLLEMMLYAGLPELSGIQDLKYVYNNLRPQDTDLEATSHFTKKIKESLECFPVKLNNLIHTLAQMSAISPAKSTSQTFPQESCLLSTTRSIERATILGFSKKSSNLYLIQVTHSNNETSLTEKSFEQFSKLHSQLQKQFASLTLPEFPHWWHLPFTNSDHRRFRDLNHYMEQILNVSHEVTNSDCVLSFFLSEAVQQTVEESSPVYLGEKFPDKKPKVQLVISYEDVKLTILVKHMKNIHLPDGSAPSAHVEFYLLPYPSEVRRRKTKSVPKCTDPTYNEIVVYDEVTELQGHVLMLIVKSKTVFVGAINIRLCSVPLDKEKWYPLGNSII
Chain of BRK (Q13882 whole entry): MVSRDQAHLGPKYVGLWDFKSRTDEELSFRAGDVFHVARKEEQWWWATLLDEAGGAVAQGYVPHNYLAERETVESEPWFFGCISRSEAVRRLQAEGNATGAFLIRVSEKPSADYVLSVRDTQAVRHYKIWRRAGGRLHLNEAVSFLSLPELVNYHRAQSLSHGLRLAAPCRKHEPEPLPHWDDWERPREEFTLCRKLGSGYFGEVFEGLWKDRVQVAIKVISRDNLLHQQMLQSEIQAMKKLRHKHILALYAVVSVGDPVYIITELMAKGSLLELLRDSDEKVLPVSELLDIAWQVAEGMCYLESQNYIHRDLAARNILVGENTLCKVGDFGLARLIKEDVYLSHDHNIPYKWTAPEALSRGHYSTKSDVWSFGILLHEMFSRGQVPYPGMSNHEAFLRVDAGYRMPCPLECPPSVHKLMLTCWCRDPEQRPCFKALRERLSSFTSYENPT
Chain of TIE2 (Q02763 23-1124): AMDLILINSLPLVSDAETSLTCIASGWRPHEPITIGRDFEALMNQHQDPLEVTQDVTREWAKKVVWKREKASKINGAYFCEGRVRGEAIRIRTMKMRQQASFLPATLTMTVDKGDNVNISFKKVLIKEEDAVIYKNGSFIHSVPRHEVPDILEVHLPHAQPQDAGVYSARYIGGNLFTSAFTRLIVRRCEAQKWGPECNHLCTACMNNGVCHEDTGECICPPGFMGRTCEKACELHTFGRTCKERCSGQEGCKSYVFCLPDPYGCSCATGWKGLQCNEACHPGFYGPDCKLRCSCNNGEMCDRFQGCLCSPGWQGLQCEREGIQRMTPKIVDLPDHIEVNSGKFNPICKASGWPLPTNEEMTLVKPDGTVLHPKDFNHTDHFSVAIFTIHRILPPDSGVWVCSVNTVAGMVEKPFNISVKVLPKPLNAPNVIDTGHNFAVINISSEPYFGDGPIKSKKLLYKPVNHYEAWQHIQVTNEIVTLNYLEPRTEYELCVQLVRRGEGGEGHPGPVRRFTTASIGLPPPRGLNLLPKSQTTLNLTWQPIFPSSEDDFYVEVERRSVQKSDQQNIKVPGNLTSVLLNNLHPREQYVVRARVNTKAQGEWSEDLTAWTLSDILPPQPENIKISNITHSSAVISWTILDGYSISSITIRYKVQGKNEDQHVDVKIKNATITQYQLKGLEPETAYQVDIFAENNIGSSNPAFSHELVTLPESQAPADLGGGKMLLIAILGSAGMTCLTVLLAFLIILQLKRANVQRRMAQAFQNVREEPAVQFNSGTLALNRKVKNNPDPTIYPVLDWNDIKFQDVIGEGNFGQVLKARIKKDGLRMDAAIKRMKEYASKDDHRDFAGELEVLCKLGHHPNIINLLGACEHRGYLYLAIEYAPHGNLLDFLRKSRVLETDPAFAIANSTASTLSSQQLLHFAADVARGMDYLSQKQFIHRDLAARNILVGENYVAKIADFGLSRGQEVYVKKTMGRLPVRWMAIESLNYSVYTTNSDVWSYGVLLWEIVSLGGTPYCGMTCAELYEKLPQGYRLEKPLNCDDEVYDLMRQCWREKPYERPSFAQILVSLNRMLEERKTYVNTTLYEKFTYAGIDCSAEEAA
Chain of EGFR(L858R) (P00533 25-1210 L858R): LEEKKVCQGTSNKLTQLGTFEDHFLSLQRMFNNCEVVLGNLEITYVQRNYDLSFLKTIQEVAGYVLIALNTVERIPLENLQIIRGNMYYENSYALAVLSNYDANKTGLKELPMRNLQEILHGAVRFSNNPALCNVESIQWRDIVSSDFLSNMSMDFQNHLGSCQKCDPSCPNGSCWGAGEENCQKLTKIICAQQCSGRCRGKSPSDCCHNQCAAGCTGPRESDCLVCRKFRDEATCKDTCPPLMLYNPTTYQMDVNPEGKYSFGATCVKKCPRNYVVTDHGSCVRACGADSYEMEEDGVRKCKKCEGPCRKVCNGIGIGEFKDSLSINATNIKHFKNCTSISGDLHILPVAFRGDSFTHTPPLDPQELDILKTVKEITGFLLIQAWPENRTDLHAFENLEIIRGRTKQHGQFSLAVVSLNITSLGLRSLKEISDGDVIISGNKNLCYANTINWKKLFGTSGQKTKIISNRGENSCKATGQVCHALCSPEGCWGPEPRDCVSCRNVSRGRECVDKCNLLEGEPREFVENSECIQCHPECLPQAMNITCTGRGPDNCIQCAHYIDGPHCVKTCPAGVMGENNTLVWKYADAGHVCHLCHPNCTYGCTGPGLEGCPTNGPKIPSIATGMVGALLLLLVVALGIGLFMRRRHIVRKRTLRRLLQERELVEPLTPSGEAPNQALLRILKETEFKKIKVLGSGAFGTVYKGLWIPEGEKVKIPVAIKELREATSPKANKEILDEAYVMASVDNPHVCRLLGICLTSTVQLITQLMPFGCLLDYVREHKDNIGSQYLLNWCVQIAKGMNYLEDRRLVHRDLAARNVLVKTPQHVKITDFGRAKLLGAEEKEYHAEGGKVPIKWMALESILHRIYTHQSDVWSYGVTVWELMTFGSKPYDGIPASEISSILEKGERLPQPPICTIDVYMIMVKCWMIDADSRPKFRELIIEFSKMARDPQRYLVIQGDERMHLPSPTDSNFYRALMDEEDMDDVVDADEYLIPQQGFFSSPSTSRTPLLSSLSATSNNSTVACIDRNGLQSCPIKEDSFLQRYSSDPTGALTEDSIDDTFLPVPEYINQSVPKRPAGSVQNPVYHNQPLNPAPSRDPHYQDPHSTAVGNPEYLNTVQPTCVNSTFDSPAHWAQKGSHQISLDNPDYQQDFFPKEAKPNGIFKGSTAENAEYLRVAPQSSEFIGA
Chain of ACVR2A (P27037 20-513): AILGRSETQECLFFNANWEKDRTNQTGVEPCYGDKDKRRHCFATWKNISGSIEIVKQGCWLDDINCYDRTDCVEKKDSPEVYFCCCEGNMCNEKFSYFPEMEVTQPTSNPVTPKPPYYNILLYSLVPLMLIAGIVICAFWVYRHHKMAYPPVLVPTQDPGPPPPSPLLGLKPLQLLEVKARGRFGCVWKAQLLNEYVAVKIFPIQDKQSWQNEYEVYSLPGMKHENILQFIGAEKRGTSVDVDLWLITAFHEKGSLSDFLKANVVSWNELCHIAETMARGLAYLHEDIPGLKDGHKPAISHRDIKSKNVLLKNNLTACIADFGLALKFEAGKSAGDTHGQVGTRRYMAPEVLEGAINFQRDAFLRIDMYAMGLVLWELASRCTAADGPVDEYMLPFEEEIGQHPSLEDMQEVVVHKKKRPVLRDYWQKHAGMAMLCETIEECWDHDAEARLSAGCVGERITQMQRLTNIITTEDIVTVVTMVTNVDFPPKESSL

Work on `CCNc1cc(Nc2ccc(C(=O)N3CCC(N4CCOCC4)CC3)cc2OC)nc2[nH]cc(C(F)(F)F)c12` [Example 57, (4-((4-(ethylamino)-3-(trifluoromethyl)-1H-pyrrolo[2,3-b]pyridin-6-yl)amino)-3-methoxyphenyl) (4-morpholinopiperidin-1-yl)methanone] yielded a remaining binding at 1 µM [1] of 100%, a remaining binding at 1 µM [2] of 78% and a remaining binding at 1 µM [3] of 90%. For the same compound, the remaining binding at 1 µM [4] was 70%, the remaining binding at 1 µM [5] was 78% and the remaining binding at 1 µM [6] was 69%. For the same compound, the remaining binding at 1 µM [7] was 91%, the remaining binding at 1 µM [8] was 53% and the remaining binding at 1 µM [9] was 86%. The remaining binding at 1 µM [10] was 75%, the remaining binding at 1 µM [11] was 100% and the remaining binding at 1 µM [12] was 89%. For the same compound, the remaining binding at 1 µM [13] was 85%, the remaining binding at 1 µM [14] was 100% and the remaining binding at 1 µM [15] was 71%. It also gave a remaining binding at 1 µM [16] of 80%, a remaining binding at 1 µM [17] of 84% and a remaining binding at 1 µM [18] of 82%. It also gave a remaining binding at 1 µM [19] of 71%, a remaining binding at 1 µM [20] of 100% and a remaining binding at 1 µM [21] of 100%. It also gave a remaining binding at 1 µM [22] of 83%, a remaining binding at 1 µM [23] of 100% and a remaining binding at 1 µM [24] of 99%. The remaining binding at 1 µM [25] was 47%, the remaining binding at 1 µM [26] was 100% and the remaining binding at 1 µM [27] was 69%. It also gave a remaining binding at 1 µM [28] of 83%, a remaining binding at 1 µM [29] of 88% and a remaining binding at 1 µM [30] of 94%. The remaining binding at 1 µM [31] was 92%, the remaining binding at 1 µM [32] was 78% and the remaining binding at 1 µM [33] was 95%. The remaining binding at 1 µM [34] was 91%, the remaining binding at 1 µM [35] was 88% and the remaining binding at 1 µM [36] was 100%. The remaining binding at 1 µM [37] was 89%, the remaining binding at 1 µM [38] was 84% and the remaining binding at 1 µM [39] was 90%.

With `CCNc1cc(Nc2ccc(C(=O)N3CCC(N4CCOCC4)CC3)cc2OC)nc2[nH]cc(C#N)c12` [Example 18, 4-(ethylamino)-6-((2-methoxy-4-(4-morpholinopiperidine-1-carbonyl)phenyl)amino)-1H-pyrrolo[2,3-b]pyridine-3-carbonitrile] the remaining binding at 1 µM [1] was 93%, the remaining binding at 1 µM [2] was 48% and the remaining binding at 1 µM [3] was 96%. For the same compound, the remaining binding at 1 µM [4] was 71%, the remaining binding at 1 µM [5] was 91% and the remaining binding at 1 µM [6] was 100%. It also gave a remaining binding at 1 µM [7] of 98%, a remaining binding at 1 µM [8] of 34% and a remaining binding at 1 µM [9] of 85%. The remaining binding at 1 µM [10] was 92%, the remaining binding at 1 µM [11] was 100% and the remaining binding at 1 µM [12] was 7.1%. For the same compound, the remaining binding at 1 µM [13] was 100%, the remaining binding at 1 µM [14] was 85% and the remaining binding at 1 µM [15] was 16%. For the same compound, the remaining binding at 1 µM [16] was 74%, the remaining binding at 1 µM [17] was 88% and the remaining binding at 1 µM [18] was 25%. It also gave a remaining binding at 1 µM [19] of 85%, a remaining binding at 1 µM [20] of 99% and a remaining binding at 1 µM [21] of 92%. It also gave a remaining binding at 1 µM [22] of 88%, a remaining binding at 1 µM [23] of 59% and a remaining binding at 1 µM [24] of 100%. The remaining binding at 1 µM [25] was 82%, the remaining binding at 1 µM [26] was 79% and the remaining binding at 1 µM [27] was 83%. It also gave a remaining binding at 1 µM [28] of 100%, a remaining binding at 1 µM [29] of 82% and a remaining binding at 1 µM [30] of 95%. The remaining binding at 1 µM [31] was 100%, the remaining binding at 1 µM [32] was 88% and the remaining binding at 1 µM [33] was 92%. It also gave a remaining binding at 1 µM [34] of 49%, a remaining binding at 1 µM [35] of 84% and a remaining binding at 1 µM [36] of 64%. It also gave a remaining binding at 1 µM [37] of 82%, a remaining binding at 1 µM [38] of 91% and a remaining binding at 1 µM [39] of 100%.
